From patent US6686443
Where two headings read alike, the source gives them in different places.

Settings: disulfide bond

With CC[C@H](C)[C@@H]1NC(=O)[C@H](Cc2ccc(O)cc2)NC(=O)[C@@H](N)CSSC[C@@H](C(=O)N2CCC[C@H]2C(=O)N[C@@H](CC(C)C)C(=O)NCC(N)=O)NC(=O)[C@H](CC(N)=O)NC(=O)[C@H](CCC(N)=O)NC1=O [oxytocin] as the compound, how does the ring closure, conversion (from H-Cys-Tyr-Ile-Gln-Asn-Cys-Pro-Leu-Gly-NH2, 20-membered ring, trans-[Pt(en)2Cl2]2+) read?
The ring closure, conversion was 98%.

With CC(=O)N1CCC[C@H]1C(=O)N[C@H](C(=O)N[C@H]1CSSC[C@@H](C(=O)N[C@@H](CCCNC(=N)N)C(=O)N[C@@H](CCCCN)C(N)=O)NC(=O)[C@H](Cc2ccccc2)NC(=O)[C@@H]2CCCN2C1=O)[C@@H](C)O [Ac-Pro-Thr-Cys-Pro-Phe-Cys-Arg-Lys-NH2] as the compound, how does the ring closure, conversion (from Ac-Pro-Thr-Cys-Pro-Phe-Cys-Arg-Lys-NH2, 14-membered ring, trans-[Pt(en)2Cl2]2+) read?
The ring closure, conversion was 100%.

Which ring closure, conversion (from H-Arg-Pro-Cys-Pro-Gln-Cys-Phe-Tyr-Pro-Leu-Met-NH2, 14-membered ring) does the source give for CSCC[C@H](NC(=O)[C@H](CC(C)C)NC(=O)[C@@H]1CCCN1C(=O)[C@H](Cc1ccc(O)cc1)NC(=O)[C@H](Cc1ccccc1)NC(=O)[C@@H]1CSSC[C@H](NC(=O)[C@@H]2CCCN2C(=O)[C@@H](N)CCCNC(=N)N)C(=O)N2CCC[C@H]2C(=O)N[C@@H](CCC(N)=O)C(=O)N1)C(N)=O [H-Arg-Pro-Cys-Pro-Gln-Cys-Phe-Tyr-Pro-Leu-Met-NH2] here?
Its ring closure, conversion is 99%.

With CC(=O)N[C@H]1CSSC[C@@H](C(N)=O)NC(=O)[C@@H]2CCCN2C(=O)CNC1=O [Ac-Cys-Gly-Pro-Cys-NH2] as the compound, how does the ring closure, conversion (from Ac-Cys-Gly-Pro-Cys-NH2, 14-membered ring, trans-[Pt(en)2Cl2]2+) read?
The ring closure, conversion was 100%.

Which ring closure, conversion (from HSC(Me)2CH2CO-Tyr(Me)-Phe-Gln-Asn-Cys-Pro-Arg-Gly-NH2, 20-membered ring, trans-[Pt(en)2Cl2]2+) does the source give for COc1ccc(C[C@@H]2NC(=O)CC(C)(C)SSC[C@@H](C(=O)N3CCC[C@H]3C(=O)N[C@@H](CCCNC(=N)N)C(=O)NCC(N)=O)NC(=O)[C@H](CC(N)=O)NC(=O)[C@H](CCC(N)=O)NC(=O)[C@H](Cc3ccccc3)NC2=O)cc1 here?
Its ring closure, conversion is 97%.

With N=C(N)NCCC[C@H](NC(=O)[C@@H]1CCCN1C(=O)[C@@H]1CSSC[C@H](N)C(=O)N[C@@H](Cc2ccc(O)cc2)C(=O)N[C@@H](Cc2ccccc2)C(=O)N[C@@H](CCC(N)=O)C(=O)N[C@@H](CC(N)=O)C(=O)N1)C(=O)NCC(N)=O [arginine-vasopressin] as the compound, how does the ring closure, conversion (from H-Cys-Tyr-Phe-Gln-Asn-Cys-Pro-Arg-Gly-NH2, 20-membered ring, trans-[Pt(en)2Cl2]2+) read?
Its ring closure, conversion is 100%.

With CC[C@H](C)[C@H](NC(=O)[C@H](CC(=O)O)NC(=O)[C@@H](NC(C)=O)[C@@H](C)O)C(=O)N[C@H](C(=O)N[C@H]1CSSC[C@@H](C(=O)N[C@@H](Cc2c[nH]cn2)C(=O)N[C@@H](CCCCN)C(=O)N[C@@H](CC(C)C)C(=O)N[C@@H](Cc2c[nH]cn2)C(N)=O)NC(=O)[C@H](Cc2ccc(O)cc2)NC(=O)CNC1=O)[C@@H](C)O [Ac-Thr-Asp-Ile-Thr-Cys-Gly-Tyr-Cys-His-Lys-Leu-His-NH2] as the compound, how does the ring closure, conversion (from Ac-Thr-Asp-Ile-Thr-Cys-Gly-Tyr-Cys-His-Lys-Leu-His-NH2, 14-membered ring, trans-[Pt(en)2Cl2]2+) read?
Its ring closure, conversion is 100%.

With CC(=O)N[C@@H](CCCCN)C(=O)N1CCC[C@H]1C(=O)N[C@H](C(=O)N[C@H]1CSSC[C@@H](C(=O)N[C@@H](CCCNC(=N)N)C(=O)N[C@@H](CCCCN)C(=O)N[C@H](C(N)=O)[C@@H](C)O)NC(=O)[C@H](Cc2ccccc2)NC(=O)[C@@H]2CCCN2C1=O)[C@@H](C)O [Ac-Lys-Pro-Thr-Cys-Pro-Phe-Cys-Arg-Lys-Thr-NH2] as the compound, how does the ring closure, conversion (from Ac-Lys-Pro-Thr-Cys-Pro-Phe-Cys-Arg-Lys-Thr-NH2, 14-membered ring, trans-[Pt(en)2Cl2]2+) read?
The ring closure, conversion was 100%.

With NC(=O)CC[C@@H]1NC(=O)[C@H](Cc2ccccc2)NC(=O)[C@H](Cc2ccc(O)cc2)NC(=O)[C@@H](N)CSSC[C@@H](C(=O)O)NC(=O)[C@H](CC(N)=O)NC1=O [pressinoic acid] as the compound, how does the ring closure, conversion (from H-Cys-Tyr-Phe-Gln-Asn-Cys-OH, 20-membered ring, trans-[Pt(en)2Cl2]2+) read?
The ring closure, conversion was 100%.

For CC(=O)N[C@H](C(=O)N[C@H]1CSSC[C@@H](C(=O)N[C@@H](CCCNC(=N)N)C(N)=O)NC(=O)[C@H](Cc2ccccc2)NC(=O)[C@@H]2CCCN2C1=O)[C@@H](C)O [Ac-Thr-Cys-Pro-Phe-Cys-Arg-NH2], which ring closure, conversion (from Ac-Thr-Cys-Pro-Phe-Cys-Arg-NH2, 14-membered ring, trans-[Pt(en)2Cl2]2+) is on record?
Its ring closure, conversion is 100%.

For somatostatin, which ring closure, conversion (38-membered ring) is on record?
The ring closure, conversion was 99%.

For CC(=O)N[C@H]1CSSC[C@@H](C(N)=O)NC(=O)[C@H](C)NC(=O)[C@H](C)NC(=O)[C@H](Cc2ccccc2)NC(=O)[C@@H]2CCCN2C1=O [Ac-Cys-Pro-Phe-Ala-Ala-Cys-NH2], which ring closure, conversion (from Ac-Cys-Pro-Phe-Ala-Ala-Cys-NH2, 20-membered ring, trans-[Pt(en)2Cl2]2+) is on record?
The ring closure, conversion was 100%.

Which ring closure, conversion (the molecule shown is the open-chain precursor, 53-membered ring, trans-[Pt(en)2Cl2]2+, phosphate buffer pH 6.0, 0.04 mM) does the source give for “H-Cys-Phe-Gly-Ser-Arg-Ile-Asp-Arg-Ile-Gly-Ala-Gln-Ser-Gly-Met-Gly-Cys-Gly-Arg-Phe-OH” here?
The ring closure, conversion was 100%.

Which ring closure, conversion (from Ac-Cys-Pro-Phe-Cys-NH2, 14-membered ring, trans-[Pt(en)2Cl2]2+) does the source give for CC(=O)N[C@H]1CSSC[C@@H](C(N)=O)NC(=O)[C@H](Cc2ccccc2)NC(=O)[C@@H]2CCCN2C1=O [Ac-Cys-Pro-Phe-Cys-NH2] here?
The ring closure, conversion was 97%.
